Target: T1, purified Na,K-ATPase from lamb kidney (α1) (Ovis aries, UniProt P04074)
T1 construct: gene ATP1A1; native enzyme purified from lamb kidney (gift of W. Ball); with Sodium/potassium-transporting ATPase subunit beta-1
Assay: coupled pyruvate kinase/lactate dehydrogenase ATPase assay, NADH absorbance at […] nm, Hill fit
Assay type: biochemical
Conditions: inhibition; 3 h incubation in K+-free solution; 5 mM ATP, 100 mM NaCl, 10 mM MgCl2; pH 7.3; 37 °C

`C[C@@H]1O[C@@H](O[C@H]2C[C@@H](O)[C@]3(CO)[C@H]4[C@H](O)C[C@]5(C)[C@@H](C6=CC(=O)OC6)CC[C@]5(O)[C@@H]4CC[C@]3(O)C2)[C@H](O)[C@H](O)[C@H]1O` [ouabain] gave a K0.5 of 157 ± 7 nM.
